In patent publication US20190261630A1, “USE OF PYRAZIFLUMID FOR CONTROLLING SCLEROTINIA SPP IN SEED TREATMENT APPLICATIONS” (Bayer CropScience Aktiengesellschaft, priority 2016, published 2019):
Where two headings read alike, the source gives them in different places.

Key:
Format in all cases: in vivo
[1] = system: Sclerotinia sclerotiorum; test: Seed treatment test, control efficacy against ascospore infection in soybean, greenhouse (Example A, Tests 1-6); settings: for pest or weed control at 25 g/100 kg seed: soybean seed treatment 25 g a.i./100 kg seed; for pest or weed control at 50 g/100 kg seed: soybean seed treatment 50 g a.i./100 kg seed; for pest or weed control at 70 g/100 kg seed / pest or weed control at 140 g/100 kg seed / pest or weed control at 35 g/100 kg seed: read-out: Sclerotinia sclerotiorum Control efficacy %; for pest or weed control at 10 g/100 kg seed: soybean seed treatment 10 g a.i./100 kg seed
Method: (§1) The test is performed under greenhouse conditions.
(§2) Soybean seeds, treated to the desired dosages with the active compound solved in N-methyl-2-pyrrolidon and diluted with water, were sown in 6×6 cm pots (one seed per pot) filled with 1:1 mixture of steamed loam soil and quartz sand.
(§3) The plants were grown at 24° C. and 90% relative humidity in a greenhouse. Ascospores of Sclerotinia sclerotiorum were collected from 3 month old asci. Whole aerial surface of 19-25-day-old seedlings were sprayed with water suspension of the ascospores. The plants were kept for 48-96 hours in the dark at 24° C. and a relative humidity of 99%.
(§4) Assessment consisted of evaluation of infected area of the unifoliate leaves. Zero % means infection which corresponds to that of the untreated check, while an efficacy of 100% means that no infection was observed.
The control efficacy is based on % infected leaf area.
Moreover, the tests were performed with different batches of plants.

[2] = system: soybean plants; test: Damage on plants after seed treatment, relative growth inhibition in non-inoculated plants (Example A, Tests 1-6)
Method: as §1, §2, §3

[3] = system: soybean plants; test: Damage on plants after seed treatment, emergence inhibition (Example B, Test 8); settings: soybean seed treatment 50 g a.i./100 kg seed
Method: as §2
as §3, with “27 day-old” for “19-25-day-old”, “72” for “48-96”

[4] = system: dwarf beans; test: Damage on plants in spray test (Example B, Test 7); settings: spray treatment 100 mg ai/Liter, dwarf bean
Method: (§5) Solvent: 24.5 parts by weight of acetone • 24.5 parts by weight of dimethylacetamide
(§6) Emulsifier: 1 part by weight of alkylaryl polyglycol ether
(§7) To produce a suitable preparation of active compound, 1 part by weight of active compound is mixed with the stated amounts of solvent and emulsifier, and the concentrate is diluted with water to the desired concentration.
(§8) To test for preventive activity, unifoliate leaves of 10 day-old plants are sprayed with the preparation of active compound. After the spray coating has dried on, 2 small pieces of agar covered with growth of Sclerotinia sclerotiorum are placed on each leaf. The inoculated plants are placed in a darkened chamber at approximately 20° C. and a relative atmospheric humidity of 100%.

[5] = system: Sclerotinia sclerotiorum; test: Spray test (dwarf beans), preventive control efficacy (Example B, Test 7); settings: spray treatment 100 mg ai/Liter, dwarf bean, 10 days old plants, incubation 3 days
Method: as §5, §6, §7, §8
3 days after the inoculation, the size of the lesions on the leaves is evaluated. 0% means an efficacy which corresponds to that of the untreated control, while an efficacy of 100% means that no disease is observed.

[6] = system: Sclerotinia sclerotiorum; test: Seed treatment test (soybean) with current standards, control efficacy (Example B, Test 8); settings: soybean seed treatment 50 g a.i./100 kg seed, incubation 3 days, inoculation 27 days after sowing
Method: as §2
as §3, with “27 day-old” for “19-25-day-old”, “72” for “48-96”
as §4

[7] = Sclerotinia sclerotiorum, 72 h, Test 1, incubation 3 days, inoculation 19 days after sowing
[8] = Test 1, soybean seed treatment 25 g a.i./100 kg seed
[9] = Test 1, soybean seed treatment 50 g a.i./100 kg seed
[10] = Sclerotinia sclerotiorum, 96 h, Test 4, incubation 4 days, inoculation 25 days after sowing
[11] = Sclerotinia sclerotiorum, 48 h, Test 3, incubation 2 days, inoculation 20 days after sowing
[12] = Sclerotinia sclerotiorum, 72 h, Test 6, incubation 3 days, inoculation 22 days after sowing
[13] = Test 3, soybean seed treatment 70 g a.i./100 kg seed
[14] = Test 6, soybean seed treatment 70 g a.i./100 kg seed
[15] = Sclerotinia sclerotiorum, 48 h, Test 5, incubation 2 days, inoculation 21 days after sowing
[16] = Example A, soybean seed treatment
[17] = Sclerotinia sclerotiorum, 48 h, Test 3, soybean seed treatment 70 g a.i./100 kg seed, incubation 2 days, inoculation 20 days after sowing
[18] = Sclerotinia sclerotiorum, 48 h, Test 3, soybean seed treatment 140 g a.i./100 kg seed, incubation 2 days, inoculation 20 days after sowing
[19] = Sclerotinia sclerotiorum, 72 h, Test 6, soybean seed treatment 70 g a.i./100 kg seed, incubation 3 days, inoculation 22 days after sowing
[20] = Sclerotinia sclerotiorum, 72 h, Test 6, soybean seed treatment 140 g a.i./100 kg seed, incubation 3 days, inoculation 22 days after sowing
[21] = Test 6, soybean seed treatment 140 g a.i./100 kg seed

SMILES: CC(C)ON=C(CNC(=O)c1ccccc1C(F)(F)F)c1ncc(Cl)cc1Cl
- pest or weed control at 25 g/100 kg seed [1, 7]: 5%
- pest or weed control at 50 g/100 kg seed [1, 7]: 53%
- Damage on plants (relative growth inhibition in non-inoculated plants compared to untreated plants: in %) [2, 8]: 0%
- Damage on plants (relative growth inhibition in non-inoculated plants compared to untreated plants: in %) [2, 9]: 0%

SMILES: Cc1nc2c(F)c(F)ccc2cc1Oc1cccc(F)c1C(C)(C)O
- pest or weed control at 70 g/100 kg seed ([1]; Sclerotinia sclerotiorum, 96 h): 0%
- pest or weed control at 140 g/100 kg seed ([1]; Sclerotinia sclerotiorum, 96 h): 99%

SMILES: O=S(=O)(Nc1ncc(C(F)(F)F)cc1Cl)c1ccccc1Cl
- pest or weed control at 10 g/100 kg seed [1, 10]: 73%
- pest or weed control at 50 g/100 kg seed [1, 10]: 70%
- Damage on plants (relative growth inhibition in non-inoculated plants compared to untreated plants: in %) ([2]; Test 4, soybean seed treatment 10 g a.i./100 kg seed): 17%
- Damage on plants (relative growth inhibition in non-inoculated plants compared to untreated plants: in %) ([2]; Test 4, soybean seed treatment 50 g a.i./100 kg seed): 8%

SMILES: O=c1c2cc(F)ccc2nc(-n2cncn2)n1-c1ccc(Cl)cc1Cl [Fluquinconazole]
- pest or weed control at 25 g/100 kg seed [1, 11]: 83%
- pest or weed control at 50 g/100 kg seed [1, 11]: 86%
- pest or weed control at 25 g/100 kg seed [1, 12]: 0%
- pest or weed control at 50 g/100 kg seed [1, 12]: 2%
- Damage on plants (relative growth inhibition in non-inoculated plants compared to untreated plants: in %) ([2]; Test 3, soybean seed treatment 25 g a.i./100 kg seed): 0%
- Damage on plants (relative growth inhibition in non-inoculated plants compared to untreated plants: in %) ([2]; Test 3, soybean seed treatment 50 g a.i./100 kg seed): 0%
- Damage on plants (relative growth inhibition in non-inoculated plants compared to untreated plants: in %) ([2]; Test 6, soybean seed treatment 25 g a.i./100 kg seed): 0%
- Damage on plants (relative growth inhibition in non-inoculated plants compared to untreated plants: in %) ([2]; Test 6, soybean seed treatment 50 g a.i./100 kg seed): 0%

SMILES: N#Cc1ccccc1NC(=O)c1snc(Cl)c1Cl [Isotianil]
- pest or weed control at 35 g/100 kg seed ([1]; Sclerotinia sclerotiorum, 48 h): 46%
- pest or weed control at 70 g/100 kg seed ([1]; Sclerotinia sclerotiorum, 48 h): 65%
- pest or weed control at 35 g/100 kg seed ([1]; Sclerotinia sclerotiorum, 72 h): 15%
- pest or weed control at 70 g/100 kg seed ([1]; Sclerotinia sclerotiorum, 72 h): 18%
- Damage on plants (relative growth inhibition in non-inoculated plants compared to untreated plants: in %) ([2]; Test 3, soybean seed treatment 35 g a.i./100 kg seed): 11%
- Damage on plants (relative growth inhibition in non-inoculated plants compared to untreated plants: in %) [2, 13]: 0%
- Damage on plants (relative growth inhibition in non-inoculated plants compared to untreated plants: in %) ([2]; Test 6, soybean seed treatment 35 g a.i./100 kg seed): 0%
- Damage on plants (relative growth inhibition in non-inoculated plants compared to untreated plants: in %) [2, 14]: 0%

SMILES: CC(O)(Cn1cncn1)c1ccc(Oc2ccc(Cl)cc2)cc1C(F)(F)F (centres unmarked) [Mefentrifluconazole]
- pest or weed control at 10 g/100 kg seed [1, 15]: 90%
- pest or weed control at 25 g/100 kg seed [1, 15]: 84%
- Damage on plants (relative growth inhibition in non-inoculated plants compared to untreated plants: in %) ([2]; Test 5, soybean seed treatment 10 g a.i./100 kg seed): 0%
- Damage on plants (relative growth inhibition in non-inoculated plants compared to untreated plants: in %) ([2]; Test 5, soybean seed treatment 25 g a.i./100 kg seed): 10%

SMILES: O=C(Nc1ccccc1-c1ccc(F)c(F)c1)c1nccnc1C(F)(F)F [Pyraziflumid]
- control efficacy against ascospore infection of Sclerotinia Sclerotiorum (in words) [1, 16]: excellent control efficacy
- pest or weed control at 70 g/100 kg seed [1, 17]: 87%
- pest or weed control at 140 g/100 kg seed [1, 18]: 95%
- pest or weed control at 75 g/100 kg seed ([1]; Sclerotinia sclerotiorum, 48 h, Test 5, soybean seed treatment 75 g a.i./100 kg seed, incubation 2 days, inoculation 21 days after sowing): 98%
- pest or weed control at 25 g/100 kg seed [1, 7]: 96%
- pest or weed control at 50 g/100 kg seed [1, 7]: 95%
- pest or weed control at 70 g/100 kg seed [1, 19]: 36%
- pest or weed control at 140 g/100 kg seed [1, 20]: 33%
- pest or weed control at 70 g/100 kg seed ([1]; Sclerotinia sclerotiorum, 96 h, Test 2, soybean seed treatment 70 g a.i./100 kg seed, incubation 4 days, inoculation 22 days after sowing): 58%
- pest or weed control at 140 g/100 kg seed ([1]; Sclerotinia sclerotiorum, 96 h, Test 2, soybean seed treatment 140 g a.i./100 kg seed, incubation 4 days, inoculation 22 days after sowing): 86%
- pest or weed control at 70 g/100 kg seed ([1]; Sclerotinia sclerotiorum, 96 h, Test 4, soybean seed treatment 70 g a.i./100 kg seed, incubation 4 days, inoculation 25 days after sowing): 80%
- pest or weed control at 140 g/100 kg seed ([1]; Sclerotinia sclerotiorum, 96 h, Test 4, soybean seed treatment 140 g a.i./100 kg seed, incubation 4 days, inoculation 25 days after sowing): 90%
- damage on soybean plants (in words) [2, 16]: without giving any damage
- Damage on plants (relative growth inhibition in non-inoculated plants compared to untreated plants: in %) [2, 8]: 0%
- Damage on plants (relative growth inhibition in non-inoculated plants compared to untreated plants: in %) [2, 9]: 0%
- Damage on plants (relative growth inhibition in non-inoculated plants compared to untreated plants: in %) ([2]; Test 2, soybean seed treatment 70 g a.i./100 kg seed): 0%
- Damage on plants (relative growth inhibition in non-inoculated plants compared to untreated plants: in %) ([2]; Test 2, soybean seed treatment 140 g a.i./100 kg seed): 0%
- Damage on plants (relative growth inhibition in non-inoculated plants compared to untreated plants: in %) [2, 13]: 0%
- Damage on plants (relative growth inhibition in non-inoculated plants compared to untreated plants: in %) ([2]; Test 3, soybean seed treatment 140 g a.i./100 kg seed): 0%
- Damage on plants (relative growth inhibition in non-inoculated plants compared to untreated plants: in %) ([2]; Test 4, soybean seed treatment 70 g a.i./100 kg seed): 0%
- Damage on plants (relative growth inhibition in non-inoculated plants compared to untreated plants: in %) ([2]; Test 4, soybean seed treatment 140 g a.i./100 kg seed): 0%
- Damage on plants (relative growth inhibition in non-inoculated plants compared to untreated plants: in %) ([2]; Test 5, soybean seed treatment 75 g a.i./100 kg seed): 0%
- Damage on plants (relative growth inhibition in non-inoculated plants compared to untreated plants: in %) [2, 14]: 0%
- Damage on plants (relative growth inhibition in non-inoculated plants compared to untreated plants: in %) [2, 21]: 30%

SMILES: CC1(C)N=C(c2cnc3ccccc3c2)c2ccccc2C1(F)F [Quinofumelin]
- pest or weed control at 70 g/100 kg seed [1, 19]: 16%
- pest or weed control at 140 g/100 kg seed [1, 20]: 1%
- Damage on plants (relative growth inhibition in non-inoculated plants compared to untreated plants: in %) [2, 14]: 0%
- Damage on plants (relative growth inhibition in non-inoculated plants compared to untreated plants: in %) [2, 21]: 0%

SMILES: CC1(C)N=C(c2cnc3ccccc3c2)c2ccccc2C1(F)F [drawing 23]
- pest or weed control at 70 g/100 kg seed [1, 17]: 72%
- pest or weed control at 140 g/100 kg seed [1, 18]: 96%

SMILES: O=C(NCCc1ncc(C(F)(F)F)cc1Cl)c1ccccc1C(F)(F)F [fluopyram]
- Damage on plants (emergence inhibition in %) [3]: 25%
- Damage on plants (in %) [4]: 0%
- Sclerotinia sclerotiorum Control efficacy % [5]: 100%
- Sclerotinia sclerotiorum Control efficacy % [6]: 68%

SMILES: CON(C(=O)c1cn(C)nc1C(F)F)C(C)Cc1c(Cl)cc(Cl)cc1Cl (centres unmarked) [pydiflumetofen]
- Damage on plants (emergence inhibition in %) [3]: 0%
- Damage on plants (in %) [4]: 0%
- Sclerotinia sclerotiorum Control efficacy % [5]: 100%
- Sclerotinia sclerotiorum Control efficacy % [6]: 0%
